Here are results for 61 compounds from PubChem BioAssay AID2305 (GlaxoSmithKline (GSK), 2010).

The structures appear in SMILES notation.

This experiment has as its system P. falciparum 3D7 growth, pLDH absorbance. Put plainly: P. falciparum 3D7 growth inhibition, dose response, strain 3D7 (AID 2305).

The compound `COc1ccccc1-c1ccc(C(=O)NCC2CCCN(Cc3cccc(C(F)(F)F)c3)C2)s1` (stereo unspecified) returned an IC50 of 1540 nM. That is a single-digit micromolar value.

Consider `CCOc1ccc(Nc2cc(C)nc(Nc3ccc(OCC)cc3)n2)cc1`, for which the half-inhibitory concentration (IC50) is 870 nM. This IC50 is about 1.8-fold lower than that of the compound before. `O=C(NC1CCCCCC1)C1CCCN(C(=O)c2ccc(O)c(-c3ccc(Cl)c(Cl)c3)c2)C1` (stereo unspecified) gave an IC50 of 760 nM. The IC50 values of the last two compounds are within 1.5-fold of each other. Next, `CCCCCCCN1CC[C@H](CC(=O)Nc2ccnc3ccc(OC)cc23)[C@@H](CC)C1`: 590 nM; `CCCc1cc(OC)c(CC2c3cccc(O)c3CCN2C)cc1OC` (stereo unspecified): 300 nM; `O=C(Nc1cc(F)cc(F)c1)N[C@H]1CCN(CCCCCNC(=O)[C@@H]2C[C@H]2c2ccc(Cl)c(Cl)c2)C1`: 1080 nM.

`O=C(NCCc1ccccc1)N(Cc1cccc(-c2ccc(CNCc3ccc4c(c3)OCO4)cc2)c1)C1CCN(Cc2ccccc2)CC1` registered a concentration for half-maximal inhibition (IC50) of 660 nM. Next, `COc1cc(F)c2ncc(Cl)c(CCN3CCC(NCc4ccc5c(c4)NC(=O)CO5)CC3)c2c1`: 230 nM.

Turning to `COc1ccc(/C=C/C(=O)Nc2ccc(-c3ccncc3)cc2)cc1CCCN(C)C`, the IC50 worked out at 750 nM. `Cc1cccc2[nH]c(-c3ccc(-c4ccc(NC(=O)Nc5ccc(F)c(F)c5F)cc4)cc3)nc12` came in with an IC50 of 270 nM. Next, `OCC(c1ccccc1)n1c(COc2ccc(Cl)cc2)nc2c(OCCCN3CCCCC3)cccc21` (stereo unspecified): 920 nM; `Nc1nccc2ccc(Oc3ccncc3)cc12`: 480 nM; `COc1ccc(C2SCC(=O)N2CCc2ccc(OC)c(OC)c2)cc1` (stereo unspecified): 310 nM.

In turn, `O=C(NC1CCC(N2CCCC(OCc3ccccc3)C2)CC1)c1cc2ccccc2[nH]1` (stereo unspecified) registered a 50% inhibitory concentration (IC50) of 1210 nM. For `O=C(NC(CCCN1CCC(c2ccccc2)CC1)c1ccc(Cl)c(Cl)c1)c1cc(C(F)(F)F)cc(C(F)(F)F)c1` (stereo unspecified), the IC50 came out at 860 nM. The compound `CN1CCN(c2cc(NC(=O)c3ccc(-c4ccc(C#N)cc4)cc3)ccc2Cl)CC1` registered an IC50 of 460 nM. The result for `COc1cccc(C2CCN(CCN3CCC(NC(=O)c4ccc(-c5ccc(C(F)(F)F)cc5)cc4)CC3)CC2)c1` reads 200 nM; that for `CCC(CC)CN1C(=O)C(C)(c2ccccc2)N=C1N` (stereo unspecified), 1060 nM. The result for `O=C(Nc1cccc(-c2ccc(-c3nc4ccccc4[nH]3)cc2)c1)c1cccnc1` reads 1040 nM; that for `O=C(Nc1ccc(Cl)c(C(F)(F)F)c1)NC1CCN(CCCCCNC(=O)[C@@H]2C[C@H]2c2ccc(Cl)c(Cl)c2)CC1`, 680 nM; that for `O=[N+]([O-])c1cccc(CNCC2CCN(CC3CCCCC3)CC2)c1`, 1290 nM. `COc1cc(Cc2cnc(N)nc2N)ccc1Oc1ccc(N)cc1` came in with an IC50 of 870 nM. This IC50 and that of the compound before are within 1.5-fold of each other. The result for `Cc1cc(F)ccc1-c1nc(NCCCN2CCCC2=O)nc2c1ccc(=O)n2-c1c(F)cccc1F` reads 1020 nM.

On to `CN1CCCC1CCOc1ccc2c(c1)N(C(=O)Nc1cc(Br)cc(C(F)(F)F)c1)CC2` (stereo unspecified), for which the IC50 was determined as 250 nM. Compared with the last compound, the IC50 is about 4.1-fold lower.

The compound `CCCCN(CCCC)C(=O)CC(O)c1cc2c(Cl)cc(Cl)cc2c2cc(C(F)(F)F)ccc12` (stereo unspecified) registered a half-inhibitory concentration (IC50) of 1210 nM. For `O=C(c1cncc(-c2ccccc2)c1)N(Cc1cncn1Cc1ccccc1F)CC1CC1`, the IC50 was found to be 800 nM. As to `c1cc(-c2ccc(CNCc3ccsc3)cc2)cc(-c2nc3ccccc3[nH]2)c1`, the IC50 came out at 160 nM. Turning to `COc1cc2c(C3CCN(CC4CCC(NC(=O)/C=C/c5ccc(Cl)c(Cl)c5)CC4)CC3)c[nH]c2cn1` (stereo unspecified), the IC50 turned out to be 420 nM. The result for `CNc1c2c(nc3ccc(NC(=O)CCCCCCc4ccccc4)cc13)CCCC2` reads 920 nM; that for `CCCOc1ccccc1C(=O)Nc1nonc1-c1ccc(OCC)c(OCC)c1`, 710 nM; that for `Cc1cccc2[nH]c(-c3ccc(-c4cccc(CN5CCN(CCO)CC5)c4)cc3)nc12`, 730 nM.

Turning to `CCNC(=O)N1CCN(c2nc(-c3ccccc3)nc(COC)c2Cc2ccc(C)cc2)CC1`, the half-maximal inhibitory concentration (IC50) stood at 990 nM. The IC50 values of the last two compounds are within 1.5-fold of each other. The result for `O=C(/C=C/c1ccc(C(F)(F)F)cc1)N1CCC(CCN2CCC(c3c[nH]c4ccccc34)CC2)CC1` reads 720 nM.

In turn, `COC(C(=O)OCCC1CCCN1C)(c1ccccc1)C1CCCCC1` (stereo unspecified) displayed an IC50 of 710 nM. The result for `COc1cc(NCC2(CNCc3cn(Cc4ccccc4)c4ccccc34)CCCCC2)nc2ccccc12` reads 950 nM. Next, `c1ccc2[nH]c(-c3ccc(-c4ccc(CN5CCC(N6CCCCC6)CC5)cc4)s3)nc2c1`: 150 nM.

As to `c1ccc(-c2csc(Nc3nc4cc5c(cc4s3)OCO5)n2)nc1`, the IC50 amounted to 580 nM.

For `CCCCCCn1c(Sc2ccc(C#N)c([N+](=O)[O-])c2)nnc1-c1ccc(OC)cc1`, the IC50 was determined as 850 nM. The compound `C=CCc1cccc(CN2CCC(c3cc(=O)[nH]c(-c4ccccn4)n3)CC2)c1O` had an IC50 of 1100 nM. This IC50 and that of the compound before are within 1.5-fold of each other.

The compound `COc1ccc(CC(=O)Nc2ccc(-c3cccc(-c4nc5c(C)cccc5[nH]4)c3)cc2)cc1O` returned a half-maximal inhibitory concentration (IC50) of 450 nM. In turn, `CCC(CC)(Cc1ccccc1)NC(=O)[C@H](Cc1ccc(OC)c(OC)c1)Nc1ccc(C#N)c2ccccc12` registered an IC50 of 870 nM.

In turn, `CCCc1cc(=O)[nH]c(-n2nc(C)cc2NC(=O)CC(c2ccccc2)c2ccccc2)n1` had an IC50 of 620 nM.

As to `COc1ccc(-n2nc(C(=O)NCc3ccccc3OC)c3ccccc3c2=O)cc1`, the IC50 is 220 nM. As for `CCCC(CNCc1cccc(OC(F)(F)F)c1)CNc1cc(=O)c2ccccc2[nH]1` (stereo unspecified), the IC50 was determined as 560 nM.

Take `O=C(Nc1cc(Cl)ccc1Cl)N[C@H]1CCN(CCCCCNC(=O)[C@@H]2C[C@H]2c2ccc(Cl)c(Cl)c2)C1`: the IC50 came to 770 nM. The IC50 values of the last two compounds are within 1.5-fold of each other.

For the compound `O=C(Cn1c(SCc2cccc(F)c2F)cc(=O)c2ccccc21)N(CCn1ccnc1)Cc1ccc(-c2ccc(C(F)(F)F)cc2)cc1`, the IC50 stood at 770 nM. Next, `COc1ccc(-c2ccc(NC(=O)c3cccc(Cl)c3)c(F)c2)cc1CNC(C)C`: 890 nM; `CS(=O)(=O)Nc1cccc(-c2cnc3[nH]cc(-c4ccc(C(=O)O)c(F)c4)c3c2)c1`: 830 nM. `O=C(/C=C/C=C/c1ccccc1)NCCCCCN1CCC(c2c[nH]c3ccccc23)CC1` registered a half-maximal inhibitory concentration (IC50) of 1170 nM. The result for `c1ccc(C23N=C(Nc4nc5ccccc5[nH]4)NC2(c2ccccc2)NC(Nc2nc4ccccc4[nH]2)=N3)cc1` (stereo unspecified) reads 280 nM; that for `C=CCn1c(SCc2c(C)noc2C)nc2scc(-c3cccs3)c2c1=O`, 1100 nM. Next, `O=C(Nc1ccc(CN2CCN(S(=O)(=O)c3ccc(Cl)s3)CC2)cc1)c1cccs1`: 890 nM; `Cc1c(O)cccc1Nc1ccnc2ccc(C(F)(F)F)cc12`: 30 nM.

`CN(C)CCCn1c(N)c(-c2nc3ccccc3[nH]2)c2nc(C#N)c(C#N)nc21` had an IC50 of 590 nM. `CS(=O)(=O)c1ccc2c(c1)CCN(CCC1CCC(NC(=O)C(=Cc3ccc(Cl)cc3Cl)c3ccc(-c4ccccc4)cc3)CC1)CC2` (stereo unspecified) displayed a half-maximal inhibitory concentration (IC50) of 1170 nM.

The compound `CC(=O)C=C1CC(=O)N(C[C@@H](O)[C@H]2O[C@@H]3OC(C)(C)O[C@@H]3[C@H]2O)c2ccccc2N1` registered an IC50 of 1260 nM. `COc1ccc2nc3cc(Cl)ccc3c(Nc3ccc(C(=O)O)cc3)c2c1` came in with an IC50 of 300 nM. Take `CCCCCCCC/C=C\CCCCCCCC(=O)NCc1ccc(O)c(OC)c1`: the concentration for half-maximal inhibition (IC50) is 400 nM. With `NC1CCCN(Cc2ccc(-c3cccc(-c4nc5ccccc5[nH]4)c3)cc2)C1` (stereo unspecified), the IC50 stood at 720 nM.

`CCOc1cc(C(=O)Nc2ccc3nc(N4CCCCC4)cc(C)c3c2)cc(OCC)c1OCC`: the IC50 was 820 nM. Next, `Cc1nn(-c2ccccc2)c2c1C(c1ccc(C(C)C)cc1)N1C(=N2)N(Cc2ccccc2)c2ccccc21` (stereo unspecified): 780 nM.

The IC50 is the point on the concentration scale where inhibition reaches its midpoint. Low readings indicate greater potency, high ones weaker potency.
